Measured values: article PMC7062867, “Targeting the Oncogenic TBX2 Transcription Factor With Chromomycins” (Frontiers in Chemistry, 2020)

What was measured:
TBX2 [1] = molecular target: T1, TBX2 (Homo sapiens, UniProt Q13207); test: microscale thermophoresis; also recovered by reverse affinity chromatography with UPLC-MS; type: binding
T1 sequence (Q13207 94-287): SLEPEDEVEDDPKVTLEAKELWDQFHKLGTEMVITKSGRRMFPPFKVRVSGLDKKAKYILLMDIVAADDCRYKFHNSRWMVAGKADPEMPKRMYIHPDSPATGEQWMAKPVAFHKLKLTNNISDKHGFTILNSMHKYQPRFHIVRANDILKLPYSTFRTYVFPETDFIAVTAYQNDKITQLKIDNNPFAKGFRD

TBX2 [2] = molecular target: T1, TBX2; test: microscale thermophoresis; type: binding

Row | SMILES | Kd (TBX2 [1]) | Kd (TBX2 [2])
1 | CO[C@@H]1[C@H](O)C[C@@H](O[C@@H]2C[C@H](Oc3cc4cc5c(c(O)c4c(O)c3C)C(=O)C(O[C@H]3C[C@@H](O[C@H]4C[C@@H](O[C@H]6C[C@](C)(O)[C@@H](OC(=O)C(C)C)[C@H](C)O6)[C@H](O)[C@@H](C)O4)[C@H](O)[C@@H](C)O3)C([C@H](OC)C(=O)[C@@H](O)[C@@H](C)O)C5)O[C@H](C)[C@@H]2OC(C)=O)O[C@@H]1C (some centres unmarked) [CA5, chromomycin A5] | 31.3 ± 23.3 µM | 
2 | CO[C@@H]1[C@H](O)C[C@@H](O[C@@H]2C[C@H](Oc3cc4cc5c(c(O)c4c(O)c3C)C(=O)C(O[C@H]3C[C@@H](O[C@H]4C[C@@H](O[C@H]6C[C@](C)(O)[C@@H](OC(C)=O)[C@H](C)O6)[C@H](O)[C@@H](C)O4)[C@H](O)[C@@H](C)O3)C([C@H](OC)C(=O)[C@@H](O)[C@@H](C)O)C5)O[C@H](C)[C@@H]2OC(C)=O)O[C@@H]1C (some centres unmarked) [CA6, chromomycin A6] |  | 24.4 ± 13.6 µM
